Test results reported in PubChem BioAssay AID1918944 (Molecular Pharmacology Branch, DTP, NCI, 2023).
Several values for one entry are separate records, joined by “and”; a condition that tells them apart may be missing. Identical values can stand only once.

System: 786-0 complex spheroid viability
Assay: Anticancer human tumor 786-0 cell line growth inhibition;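 note: spheroids exposed to agents for seven days before readout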
Conditions: for viability, T/C: stronger effect = lower value
Outline: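 Multicellular complex spheroids of tumor cells with human endothelial cells (HUVEC) and mesenchymal stem cells; the LSD1 inhibitor iadademstat was combined with standard-of-care or investigational agents. Top concentration at or near clinical Cmax, half-log dilutions; final DMSO ≤0.25%.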

[1] = curve of first compound, second compound 0.1 µM
[2] = curve of first compound, second compound 0.316 µM
[3] = curve of first compound, second compound 1 µM
[4] = curve of first compound, second compound 3.16 µM
[5] = curve of first compound, second compound 10 µM
[6] = second compound 0.1 µM, first compound 0.0316 µM
[7] = second compound 0.1 µM, first compound 0.1 µM
[8] = second compound 0.1 µM, first compound 0.316 µM
[9] = second compound 0.1 µM, first compound 1 µM
[10] = second compound 0.1 µM, first compound 3.16 µM
[11] = second compound 0.1 µM, first compound 10 µM
[12] = second compound 0.316 µM, first compound 0.0316 µM
[13] = second compound 0.316 µM, first compound 0.1 µM
[14] = second compound 0.316 µM, first compound 0.316 µM
[15] = second compound 0.316 µM, first compound 1 µM
[16] = second compound 0.316 µM, first compound 3.16 µM
[17] = second compound 0.316 µM, first compound 10 µM
[18] = second compound 1 µM, first compound 0.0316 µM
[19] = second compound 1 µM, first compound 0.1 µM
[20] = second compound 1 µM, first compound 0.316 µM
[21] = second compound 1 µM, first compound 1 µM
[22] = second compound 1 µM, first compound 3.16 µM
[23] = second compound 1 µM, first compound 10 µM
[24] = second compound 3.16 µM, first compound 0.0316 µM
[25] = second compound 3.16 µM, first compound 0.1 µM
[26] = second compound 3.16 µM, first compound 0.316 µM
[27] = second compound 3.16 µM, first compound 1 µM
[28] = second compound 3.16 µM, first compound 3.16 µM
[29] = second compound 3.16 µM, first compound 10 µM
[30] = second compound 10 µM, first compound 0.0316 µM
[31] = second compound 10 µM, first compound 0.1 µM
[32] = second compound 10 µM, first compound 0.316 µM
[33] = second compound 10 µM, first compound 1 µM
[34] = second compound 10 µM, first compound 3.16 µM
[35] = second compound 10 µM, first compound 10 µM

| Structure (SMILES) | IC50 [1] | IC50 [2] | IC50 [3] | IC50 [4] | IC50 [5] | viability, T/C [6] | viability, T/C [7] | viability, T/C [8] | viability, T/C [9] | viability, T/C [12] | viability, T/C [13] | viability, T/C [14] | viability, T/C [15] | viability, T/C [18] | viability, T/C [19] | viability, T/C [20] | viability, T/C [21] | viability, T/C [24] | viability, T/C [25] | viability, T/C [26] | also measured |
| --- | --- | --- | --- | --- | --- | --- | --- | --- | --- | --- | --- | --- | --- | --- | --- | --- | --- | --- | --- | --- | --- |
| CC(C)c1c(-c2ccccc2)nc2c(C#N)c[nH]n2c1=O + NC1CCC(NC2CC2c2ccccc2)CC1 | > 10000 nM | > 10000 nM | > 10000 nM | > 10000 nM | > 10000 nM | 110% | 111% | 119% | 118% | 121% | 118% | 118% | 116% | 114% | 113% | 113% | 125% | 111% | 107% | 108% | viability, T/C [10]: 116%; viability, T/C [11]: 112%; viability, T/C [16]: 115%; viability, T/C [17]: 116%; viability, T/C [22]: 112%; viability, T/C [23]: 113%; viability, T/C [27]: 100%; viability, T/C [28]: 107%; viability, T/C [29]: 103%; viability, T/C [30]: 92.7%; viability, T/C [31]: 95.3%; viability, T/C [32]: 95.2%; viability, T/C [33]: 98.8%; viability, T/C [34]: 88.1%; viability, T/C [35]: 84.9% |
| CC1COCCN1c1cc(-c2ccnn2C)c2ccnc(-c3ccn[nH]3)c2n1 (configuration not stated) + NC1CC1c1ccc(-c2cccc(O)c2)cc1 | 47.9 nM | 45.3 nM | 44.1 nM | 30.7 nM | 17.4 nM | 63.8% | 25.9% | 16.2% | 17.9% | 62.5% | 22.7% | 15% | 17.3% | 61.5% | 22.6% | 15.8% | 17% | 48.2% | 23.1% | 15% | viability, T/C (second compound 0.1 µM, first compound 0.00316 µM): 119%; viability, T/C (second compound 0.1 µM, first compound 0.01 µM): 108%; viability, T/C (second compound 0.316 µM, first compound 0.00316 µM): 115%; viability, T/C (second compound 0.316 µM, first compound 0.01 µM): 107%; viability, T/C (second compound 1 µM, first compound 0.00316 µM): 111%; viability, T/C (second compound 1 µM, first compound 0.01 µM): 111%; viability, T/C (second compound 3.16 µM, first compound 0.00316 µM): 112%; viability, T/C (second compound 3.16 µM, first compound 0.01 µM): 98.5%; viability, T/C [27]: 18.4%; viability, T/C (second compound 10 µM, first compound 0.00316 µM): 103%; viability, T/C (second compound 10 µM, first compound 0.01 µM): 70.2%; viability, T/C [30]: 28.4%; viability, T/C [31]: 17%; viability, T/C [32]: 12.9%; viability, T/C [33]: 19.6% |
| CC(C)CC(NC(=O)C(Cc1ccccc1)NC(=O)c1cnccn1)B(O)O (configuration not stated) |  |  |  |  |  |  |  |  |  |  |  |  |  |  |  |  |  |  |  |  | viability, T/C (compound 0.000316 µM): 100% and 106%; viability, T/C (compound 0.001 µM): 107% and 108%; viability, T/C (compound 0.00316 µM): 32.1% and 53.2%; viability, T/C (compound 0.01 µM): 2.29% and 6.77%; viability, T/C (compound 0.0316 µM): 0.17% and 1.21%; viability, T/C (compound 0.1 µM): 0.2% and 0.37%; IC50 (curve of compound): 2.38 nM and 3.45 nM |
| O=C(c1cc(Cc2n[nH]c(=O)c3ccccc23)ccc1F)N1CCN(C(=O)C2CC2)CC1 + NC1CC1c1ccc(-c2cccc(O)c2)cc1 | > 10000 nM | > 10000 nM | > 10000 nM | > 10000 nM | > 10000 nM | 111% | 119% | 107% | 105% | 112% | 112% | 112% | 109% | 111% | 110% | 113% | 108% | 103% | 105% | 103% | viability, T/C [10]: 97.6%; viability, T/C [11]: 80.8%; viability, T/C [16]: 98.8%; viability, T/C [17]: 81.1%; viability, T/C [22]: 93.3%; viability, T/C [23]: 78.6%; viability, T/C [27]: 97.5%; viability, T/C [28]: 85.9%; viability, T/C [29]: 68.4%; viability, T/C [30]: 97.3%; viability, T/C [31]: 98.8%; viability, T/C [32]: 89.3%; viability, T/C [33]: 90.7%; viability, T/C [34]: 72.8%; viability, T/C [35]: 52.9% |
